This is an account of results in US8822198B2, “Method for optimizing a biopharmaceutical production process” (priority 2009, dated 2014).

The test system of data set [1] is CHO. The data set is described as follows: Bioreactor fermentation, pCO2 regulated/unregulated and buffer systems (Example 3). Format: cell-based, Chinese Hamster. Here is the method:
The fermentation using the multifermenter is again preceded by an optimising test using SDR. In this preliminary test, in accordance with Example 1, different NaHCO3 concentrations are tested in conjunction with the media Sod-β/H and TES/K. In the experiment, in addition to the evaluation by the drop in pO2, an identically covered well plate is used having pH sensors. […] (The data from the preliminary test are not shown here.) Fermentation takes place in two multifermenters (corresponding to twelve individual fermenters) with different media combinations. The procedure and handling are based on the sections described under the headings Equipment, Methods and Operating steps. [table] The CO2 profile shown above applies to the regulated bioreactor FS 33.1. in the remaining fermenters, after the seeding (d0), for a specific length of time at a specific control magnitude, CO2(gas) is added in order to provide the cells with a minimum of dissolved CO2. […] In the context of determining cell density it was jointly decided that no further manual interventions are required for supplying CO2 gas. [table]

For data set [2], the system named is CHO. The data set is described as follows: Fermentation verification buffer system (Example 4). The format is cell-based, Chinese Hamster. Conditions: CO2-regulated bioreactors, NaHCO3 0-16 mM, FIG. 6. The text has this:
In six CO2-regulated bioreactors the buffer systems TES and Sod-β are used with different concentrations of NaHCO3, in order to determine the optimum concentration of NaHCO3 in the medium. […] Medium B, NaHCO3-free, MOPS-free+weighed amount/stock solution buffer substance(s) • Feeding: […] NaOH (1.2M) (no CO2) • pCO2: day 0-3 5%, day 3-11 3% The buffer systems used with different concentrations of NaHCO3 are shown in Table 6. [table]

Data set [3] deals with CHO. The data set can be described thus: Shake flask experiment, buffer screen (Example 2). The format is cell-based, Chinese Hamster. Conditions: shake flasks; for cell growth / buffer performance: 11 d, incubator 1. The protocol: The selection of the buffer systems (cell-free) is now operated with cells. The criterion for the choice of the buffer systems used in this experiment is an acceptable osmolality and good buffer characteristics during the introduction of gas into the shake flask incubator. […] The objective is to determine the best buffer medium, in relation to the growth performance of the cell, as a basis for a subsequent fermentation in the bioreactor. The preparation is carried out analytically as precisely as possible. The pH values are adjusted by BGA comparison. Lower buffer concentrations are added by means of stock solutions. After manufacture, sterile filtration is carried out. As a safety measure the experiments are carried out with n=2. To achieve two different gas supply variants, the experiments are split between two different incubators. A summary can be found in the experiment plan. […] The analysis on d0 (day 0) was carried out immediately after the seeding under the LAF box, i.e. without any previous effect of the CO2 atmosphere of the incubator.

The test system of data set [4] is CHO. Conditions: acid added on day 3, FIG. 9B. Here is the method:
Different acids are added to three CO2-regulated bioreactors for a pH shift from 6.95 to 6.8 on day 3. The concentrations of the acid solutions are chosen such that the quantities of substance required, which have been determined beforehand in a titration, are present in 50 ml of solution.
The test set-up is described below: • Platform: Bioreactor/Multifermenter • Method: Fed Batch • Cell: CHO • Seeding density: 3×10^5 vc/mL • Start volume: 1.8 L • Run time: 11 days • Medium: Medium B, NaHCO3-free, MOPS-free+Sod-β (25 mM) • Feeding: Feed I continuously from day 2 • Temperature: 37° C. • pO2: 60% • Speed: 160 rpm • pH: day 0-3 7.00±0.05, day 3-11 6.80±0.05 • pH regulation: NaOH (1.2M) (no CO2)

The test system of data set [5] is CHO. Conditions: Na salt added on day 3, FIG. 8. The protocol:
In 10 250 ml shake flasks, cells are tested for their acid tolerance with the addition of sodium salts. The salt solutions are selected such that the quantities of acids determined by titration beforehand are present in 1.5 ml of solution for a pH shift from 7.1 to 6.7. On day 3 these 1.5 ml of the different salt solutions are added to the shake flasks to simulate a pH shift.

SMILES strings stand for the structures. Entries after “also recorded” stand apart in the source; their conditions may differ.

As for `[Na+].[OH-]` [NaOH, sodium hydroxide solution], in data set [1] (NaOH versus Na2CO3, FIG. 4), the “product formation rate by pH regulation agent” value is recorded as “better product formation rate”. Consider `O.O.O.O.O.O=P([O-])([O-])OC(CO)CO.[Na+].[Na+]` [Sod-β, sodium-β-glycerophosphate-pentahydrate], for which, in data set [2], the “standardised product concentration with different NaHCO3 concentrations” value was “not dependent on the amount of NaHCO3 in the medium; also recorded: productivity of the cells is independent of the concentration of NaHCO3”. Moreover, the “cell growth / buffer performance” value in data set [3] was “best buffer substances”. On to `O=S(=O)(O)CCNC(CO)(CO)CO` [TES, N-tris(hydroxymethyl)methyl-2-aminoethanesulphonic acid], for which, in data set [2], the “standardised product concentration with different NaHCO3 concentrations” value was “same product concentrations both with and without the use of NaHCO3; also recorded: identical product concentrations”. Also, the “titre concentration compared with the control” value in data set [1] (FIG. 5C, control NaHCO3 36 mmol/L) is “at the same level as those of the control”. The “cell growth / buffer performance” value in data set [3] is “best buffer substances”. Turning to `NC(CO)(CO)CO` [Trizma base], the “cell growth / buffer performance” value in data set [3] is given as “runs poorly”. The toxicity entry in data set [3] (any concentration, pH stable) is given as “may be some toxicity”. With `Cl` [hydrochloric acid], the standardised product concentration result in data set [4] is “same product concentrations”. The same measure, in the same setting: the same measure for `O=P(O)(O)O` [phosphoric acid]: “same product concentrations”.

For `CC(=O)[O-].[Na+]` [sodium acetate], the “toxic effect on cell growth” value in data set [5] was “toxic effect”. With `O=S(=O)(O)O` [sulphuric acid], in data set [4], the standardised product concentration result was “same product concentrations”.
